Assay [1] concerns the target human 11b-hsd-1 (Homo sapiens, UniProt P28845). As to the kind of experiment: Inhibition constant Ki of human 11b-hsd-1 (3H-cortisone to 3H-cortisol conversion, HPLC). Format: biochemical. The conditions noted are these: for inhibition at 0.1 µM: 0.1 μM compound; for Ki: apparent Ki, read-out: Ki app.
Procedure: In each well, varying amounts of compounds are incubated with a fixed amount of 11b-hsd-1 (4 nM) and NADPH (500 μM) for 30 to 40 min at room temperature in the assay buffer. The enzyme concentration was determined by titration using reversible tight-binding inhibitors. […] The area of 3H-cortisol is calculated and plotted versus time to determine a linear velocity. […] Where vi, and vo are the rates of cortisol formation in the presence and in the absence of inhibitor, respectively, I is the inhibitor concentration and E is the 11 b-hsd-1 concentration in the assay buffer. […] NADPH, Glucose-6-Phosphate (G6P), and Glucose-6-Phosphate dehydrogenase was purchased from Sigma.
In assay [2] the test system is healthy human volunteers. The note with it: healthy human volunteers treated with carbenoxolone; cited from earlier work.
The test system of assay [3] is normal subjects. The conditions noted are these: ingestion; cited from earlier work.
Assay [4] has as its system bone nodule formation. The note with it: cited from earlier work.

Chain of human 11b-hsd-1 (P28845 whole entry): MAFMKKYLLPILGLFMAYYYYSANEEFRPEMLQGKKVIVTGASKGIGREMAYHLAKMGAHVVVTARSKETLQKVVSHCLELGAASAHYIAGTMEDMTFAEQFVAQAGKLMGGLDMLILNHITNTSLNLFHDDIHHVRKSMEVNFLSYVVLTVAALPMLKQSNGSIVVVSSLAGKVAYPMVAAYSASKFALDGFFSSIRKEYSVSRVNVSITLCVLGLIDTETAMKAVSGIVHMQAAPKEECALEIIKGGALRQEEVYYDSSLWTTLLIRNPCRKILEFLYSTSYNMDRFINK

In the case of `O=C(NC1C2CC3CC(C2)CC1C3)[C@H]1NCC[C@@H]1CC1CCCCC1` (stereo partly shown) [Example 366], in assay [1], the inhibition at 0.1 µM was 94.9% and the Ki was 15 nM. As for `O=C(NC1C2CC3CC(C2)CC1C3)[C@H]1NCC[C@@H]1c1ccc(Cl)cc1` (stereo partly shown) [Example 367], in assay [1], the inhibition at 0.1 µM is 93.5% and the Ki was determined as 7.5 nM. Consider `O=C(NC1C2CC3CC(C2)CC1C3)[C@H]1NCC[C@@H]1Cc1ccc(F)cc1` (stereo partly shown) [Example 368], for which, in assay [1], testing at 0.1 µM gave an inhibition of 96.4% and the Ki turned out to be 6.8 nM. `O=C(NC1C2CC3CC(C2)CC1C3)[C@H]1NCC[C@@H]1Cc1ccccc1` (stereo partly shown) [Example 369]: in assay [1], the inhibition at 0.1 µM turned out to be 100% and the Ki turned out to be 6.6 nM. In the same order, the values of `O=C(NC1CCCCC1)[C@@H]1C[C@H](Oc2ccc(Cl)cc2)CN1` [Example 370] are 88.7% and 10 nM. For the compound `O=C(NC1CCCCC1)[C@@H]1C[C@H](Oc2cc(F)ccc2F)CN1` [Example 371], the inhibition at 0.1 µM in assay [1] was found to be 86.2%.

On to `O=C(NC1CCCCC1)[C@@H]1C[C@H](Oc2c(F)cc(F)cc2F)CN1` [Example 372], for which, in assay [1], the inhibition at 0.1 µM turned out to be 97.4%. Still for that read-out and setting: as for `O=C(NC1CCCCC1)[C@@H]1C[C@H](Oc2ccc(Cl)c(F)c2)CN1` [Example 373], the figure is 91.8%. `CC1(C)[C@@H](OC(=O)CCC(=O)O)CC[C@]2(C)[C@H]3C(=O)C=C4[C@@H]5C[C@@](C)(C(=O)O)CC[C@]5(C)CC[C@@]4(C)[C@]3(C)CC[C@@H]12` [carbenoxolone]: the hepatic insulin sensitivity result in assay [2] is listed as “improved”. Further, in assay [3], the “reduction of the intraocular pressure” value is given as 20%. Also, the “negative effect of glucocorticoid on bone nodule formation” value in assay [4] was “blocked”.

For orientation: inhibition means how much of the control response was suppressed. The low end stands for a weak effect, the high end for a strong effect.
